Laboratory results reported in patent publication US9763942B2, “Serine/threonine kinase inhibitors” (Array BioPharma Inc., priority 2013, dated 2017).
Read-outs that look alike come from different tables or passages of the source.

Columns and labels:
[1] = molecular target: T1, human ERK-2 (Mitogen Activated Kinase 1) (Homo sapiens, UniProt P28482); assay: ERK-2 Enzymatic Assay; type: biochemical
T1 construct: n-terminal 6-His fusion protein in E. coli and corresponding to aa 8-360; 6-His (N); made in house; host or cells: E. coli
Text: Table 1 contains representative data for Examples disclosed herein.

[2] = system: PMA-stimulated P90RSK(Ser380) phosphorylation in HepG2 cells; assay: Cellular P90RSK(Ser380) Phosphorylation Assay; type: cell-based; details: Homo sapiens, 1.5 hours compound incubation, PMA 100 ng/mL 30 minutes, pP90RSK(Ser380) signal normalized to GAPDH, single assay or mean of multiple assays, read-out: Biological Example 2 IC50
Experimental: Inhibition of PMA-stimulated P90RSK(Ser380) phosphorylation was determined by the following in vitro cellular mechanistic assay, which comprises incubating cells with a compound for 1.5 hours and quantifying fluorescent pP90RSK(Ser380) signal on fixed cells and normalizing to GAPDH signal.
HepG2 cells were obtained from ATCC and grown in DMEM supplemented with 10% fetal bovine serum. Cells were plated in 96-well plates at 35,000 cells/well and allowed to attach overnight at 37° C./5% CO2. Diluted compounds were then added at a final concentration of 0.5% DMSO. After 1.5 hours compound incubation, cells were stimulated with the addition of phorbol 12-myristate 13-acetate (“PMA”) at a final concentration of 100 ng/mL; the PMA stimulation was a 30-minute incubation at 37° C./5% CO2. After the 30-minute PMA stimulation, cells were washed with phosphate buffered saline (“PBS”) and fixed in 3.7% formaldehyde in PBS at room temperature for 15-20 minutes. This was followed by another wash in PBS and then permeabilization in 100% MeOH at room temperature for 10-15 minutes. Following the permeabilization incubation, cells were washed in PBS/0.05% Tween-20, followed by a block in Odyssey blocking buffer (LI-COR Biosciences) for at least 1 hour. Antibodies to phosphorylated P90RSK(Ser380) (Cell Signaling #9335, rabbit monoclonal) and GAPDH (Fitzgerald 10R-G109a, mouse monoclonal) were added to the cells and incubated overnight at 4° C. pP90RSK(Ser380) antibody was used at a 1:250 dilution; GAPDH was used at a 1:10,000 dilution. After washing with PBS/0.05% Tween-20, the cells were incubated with fluorescently-labeled secondary antibodies (Anti-rabbit-Alexa Flour680, Invitrogen Cat#A21109; Anti-mouse-IRDye800CW, Rockland Inc. Cat#610-131-121) for 1 hour. Both secondary antibodies were used at a 1:1000 dilution. Cells were then washed and analyzed for fluorescence at both wavelengths using the Odyssey Infrared Imaging System (LI-COR Biosciences). Phosphorylated P90RSK(Ser380) signal was normalized to GAPDH signal.

[3] = 5 nM ERK-2 enzyme, 25 μM ATP (observed Km), Omnia peptide S/T17, single assay or mean of multiple assays, read-out: Biological Example 1 IC50
[4] = ERK-2 enzymatic assay, read-out: IC50

T1 sequence (P28482 8-360): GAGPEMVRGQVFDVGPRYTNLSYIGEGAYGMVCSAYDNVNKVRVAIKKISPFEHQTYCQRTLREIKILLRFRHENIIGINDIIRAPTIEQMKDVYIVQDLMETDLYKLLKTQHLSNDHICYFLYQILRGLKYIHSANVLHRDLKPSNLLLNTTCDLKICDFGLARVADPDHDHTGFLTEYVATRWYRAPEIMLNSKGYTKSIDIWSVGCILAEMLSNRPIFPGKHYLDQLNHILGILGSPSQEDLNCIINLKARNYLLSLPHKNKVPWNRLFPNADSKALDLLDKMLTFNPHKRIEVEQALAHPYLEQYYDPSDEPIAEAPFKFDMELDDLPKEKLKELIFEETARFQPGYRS

SMILES	IC50 [1, 3] [µM]	IC50 [1, 4] [µM]	IC50 [2] [µM]
COc1ccc([C@@H](c2nccn2C)n2nnc3cc(-c4ccnc(Nc5ccnn5C)n4)ccc32)cc1F [Example 72, (S)-4-(1-((3-fluoro-4-methoxyphenyl)(1-methyl-1H-imidazol-2-yl)methyl)-1H-benzo[d][1,2,3]triazol-5-yl)-N-(1-methyl-1H-pyrazol-5-yl)pyrimidin-2-amine]	0.002	< 0.1	0.0037
Cn1nccc1Nc1nccc(-c2ccc3c(c2)nnn3CC2CCC(F)(F)CC2)n1 [Example 33, 4-(1-((4,4-difluorocyclohexyl)methyl)-1H-benzo[d][1,2,3]triazol-5-yl)-N-(1-methyl-1H-pyrazol-5-yl)pyrimidin-2-amine]	0.004	< 0.1	0.0633
COc1ccc(Cn2nnc3cc(-c4ccnc(Nc5cn(C)nc5C)n4)ccc32)cc1F [Example 8, N-(1,3-dimethyl-1H-pyrazol-4-yl)-4-(1-(3-fluoro-4-methoxybenzyl)-1H-benzo[d][1,2,3]triazol-5-yl)pyrimidin-2-amine]	0.0029	< 0.1	0.0568
CN1CC(n2nnc3cc(-c4ccnc(Nc5ccnn5C)n4)ccc32)C1 [Example 86, N-(1-methyl-1H-pyrazol-5-yl)-4-(1-(1-methylazetidin-3-yl)-1H-benzo[d][1,2,3]triazol-5-yl)pyrimidin-2-amine]	0.0028	< 0.1	0.0218
COc1ccc([C@@H](c2cnn(C)c2)n2nnc3cc(-c4ccnc(Nc5ccnn5C)n4)ccc32)cc1F [Example 70]	0.0017	< 0.1	0.0791
Cc1ncccc1Cn1nnc2cc(-c3ccnc(Nc4ccnn4C)c3)ccc21 [Example 56, N-(1-methyl-1H-pyrazol-5-yl)-4-(1-((2-methylpyridin-3-yl)methyl)-1H-benzo[d][1,2,3]triazol-5-yl)pyridin-2-amine]	0.0078	< 0.1	0.781
Cn1nccc1Nc1nccc(-c2ccc3c(c2)nnn3CCn2cccn2)n1 [Example 104, 4-(1-(2-(1H-pyrazol-1-yl)ethyl)-1H-benzo[d][1,2,3]triazol-5-yl)-N-(1-methyl-1H-pyrazol-5-yl)pyrimidin-2-amine]	0.0022	< 0.1	0.0196
Cn1nccc1Nc1cc(-c2ccc3c(c2)nnn3Cc2ccc(Cl)cc2)ccn1 [Example 55, 4-(1-(4-chlorobenzyl)-1H-benzo[d][1,2,3]triazol-5-yl)-N-(1-methyl-1H-pyrazol-5-yl)pyridin-2-amine]	0.0051	< 0.1	0.184
